Experimental data as given in ChEMBL document CHEMBL5465560, “Selectivity Literature for EUbOPEN Chemogenomic Library” (2024).

Legend:
[1] = target: Cyclin-dependent kinase 5/CDK5 activator 1 (Homo sapiens) (UniProt Q00535+Q15078); assay: Selectivity interaction (Upstate Kinase Profiler service (Millipore)) EUB0000056c CDK5; assay type: protein-complex assay; settings: at 1 µM
[2] = target: Protein kinase C alpha type (Homo sapiens, UniProt P17252); assay: Selectivity interaction (ProQinase) EUB0000171b PRKCA
[3] = target: T1, Dual specificity tyrosine-phosphorylation-regulated kinase 2 (Homo sapiens) (UniProt Q92630); assay: Selectivity interaction (Kinase panel (DSF assay)) EUB0001559a DYRK2
T1 sequence (whole entry): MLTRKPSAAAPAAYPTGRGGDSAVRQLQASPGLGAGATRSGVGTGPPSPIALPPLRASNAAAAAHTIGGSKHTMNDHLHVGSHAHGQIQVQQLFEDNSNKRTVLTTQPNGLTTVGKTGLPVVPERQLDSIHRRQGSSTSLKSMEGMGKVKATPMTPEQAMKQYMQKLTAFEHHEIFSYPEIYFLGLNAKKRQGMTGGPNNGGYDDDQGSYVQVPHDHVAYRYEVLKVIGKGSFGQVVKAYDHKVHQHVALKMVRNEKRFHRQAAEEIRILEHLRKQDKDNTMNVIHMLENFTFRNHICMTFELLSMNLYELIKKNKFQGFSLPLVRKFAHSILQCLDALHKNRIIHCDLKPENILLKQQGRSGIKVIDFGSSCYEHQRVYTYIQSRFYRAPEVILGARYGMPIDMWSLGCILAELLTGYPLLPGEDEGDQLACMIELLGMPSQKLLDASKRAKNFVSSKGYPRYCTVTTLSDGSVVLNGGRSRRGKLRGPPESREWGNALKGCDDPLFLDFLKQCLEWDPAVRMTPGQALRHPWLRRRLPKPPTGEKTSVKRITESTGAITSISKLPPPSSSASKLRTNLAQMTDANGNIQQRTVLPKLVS

[4] = target: Sodium-dependent dopamine transporter (Homo sapiens, UniProt Q01959); assay: Selectivity interaction (GPCR panel (PDSP screen)) EUB0001079a SLC6A3; settings: at 10 µM
Chain of Sodium-dependent dopamine transporter (Q01959 whole entry): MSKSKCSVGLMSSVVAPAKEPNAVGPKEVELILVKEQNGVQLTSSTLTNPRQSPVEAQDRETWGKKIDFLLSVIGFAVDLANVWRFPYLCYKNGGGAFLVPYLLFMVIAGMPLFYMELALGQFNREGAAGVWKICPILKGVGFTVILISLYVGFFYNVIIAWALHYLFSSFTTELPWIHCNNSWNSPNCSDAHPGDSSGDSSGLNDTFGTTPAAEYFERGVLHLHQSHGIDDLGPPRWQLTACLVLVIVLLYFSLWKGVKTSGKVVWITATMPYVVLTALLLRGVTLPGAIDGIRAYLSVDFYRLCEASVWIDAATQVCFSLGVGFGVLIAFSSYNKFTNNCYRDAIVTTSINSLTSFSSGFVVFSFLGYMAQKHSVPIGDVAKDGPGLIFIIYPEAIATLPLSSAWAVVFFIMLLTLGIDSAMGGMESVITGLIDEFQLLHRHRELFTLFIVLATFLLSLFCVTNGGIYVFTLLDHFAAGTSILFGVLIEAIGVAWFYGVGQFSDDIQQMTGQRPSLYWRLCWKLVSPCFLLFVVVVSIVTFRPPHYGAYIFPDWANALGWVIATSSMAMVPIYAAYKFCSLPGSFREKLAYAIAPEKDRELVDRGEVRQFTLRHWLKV

[5] = target: T2, Tyrosine-protein kinase TXK (Homo sapiens) (UniProt P42681); assay: Selectivity interaction (KinomeScan (DiscoverX)) EUB0000666a TXK; settings: at 10 µM
T2 sequence (whole entry): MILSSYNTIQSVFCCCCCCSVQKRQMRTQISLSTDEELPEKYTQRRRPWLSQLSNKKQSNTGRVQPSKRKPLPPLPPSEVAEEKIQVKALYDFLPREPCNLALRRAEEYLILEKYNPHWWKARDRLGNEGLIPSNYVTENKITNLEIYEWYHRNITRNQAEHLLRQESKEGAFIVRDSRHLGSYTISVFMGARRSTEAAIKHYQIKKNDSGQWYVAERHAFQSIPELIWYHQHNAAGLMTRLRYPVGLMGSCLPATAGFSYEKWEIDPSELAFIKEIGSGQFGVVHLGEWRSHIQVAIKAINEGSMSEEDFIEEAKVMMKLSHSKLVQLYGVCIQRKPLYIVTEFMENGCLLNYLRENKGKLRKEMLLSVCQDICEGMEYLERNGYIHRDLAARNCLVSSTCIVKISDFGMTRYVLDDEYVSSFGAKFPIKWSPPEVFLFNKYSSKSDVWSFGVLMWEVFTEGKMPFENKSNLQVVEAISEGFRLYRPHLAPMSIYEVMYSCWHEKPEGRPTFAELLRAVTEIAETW

[6] = target: T3, Phosphatidylinositol 5-phosphate 4-kinase type-2 gamma (Homo sapiens) (UniProt Q8TBX8); assay: Selectivity interaction (ActivX KiNativ screen (kinase selectivity in THP-1 cell lysates)) EUB0000639a PIP4K2C; assay type: subcellular; settings: lysate, at 1 µM
T3 sequence (whole entry): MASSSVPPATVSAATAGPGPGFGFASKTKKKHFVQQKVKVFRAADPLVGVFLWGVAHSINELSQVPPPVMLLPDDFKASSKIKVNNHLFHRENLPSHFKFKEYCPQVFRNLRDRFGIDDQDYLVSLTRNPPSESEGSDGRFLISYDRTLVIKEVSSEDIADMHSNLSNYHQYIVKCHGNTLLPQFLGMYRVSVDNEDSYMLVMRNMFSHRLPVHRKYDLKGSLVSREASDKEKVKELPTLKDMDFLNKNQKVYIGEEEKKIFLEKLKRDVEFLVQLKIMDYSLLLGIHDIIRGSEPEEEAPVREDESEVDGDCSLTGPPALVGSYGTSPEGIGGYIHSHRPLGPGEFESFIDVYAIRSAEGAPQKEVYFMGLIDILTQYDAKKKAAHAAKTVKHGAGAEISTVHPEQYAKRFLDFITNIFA

[7] = target: T4, Non-receptor tyrosine-protein kinase TNK1 (Homo sapiens) (UniProt Q13470); assay: Selectivity interaction (KinomeScan (DiscoverX)) EUB0001049a TNK1; settings: at 1 µM
T4 sequence (whole entry): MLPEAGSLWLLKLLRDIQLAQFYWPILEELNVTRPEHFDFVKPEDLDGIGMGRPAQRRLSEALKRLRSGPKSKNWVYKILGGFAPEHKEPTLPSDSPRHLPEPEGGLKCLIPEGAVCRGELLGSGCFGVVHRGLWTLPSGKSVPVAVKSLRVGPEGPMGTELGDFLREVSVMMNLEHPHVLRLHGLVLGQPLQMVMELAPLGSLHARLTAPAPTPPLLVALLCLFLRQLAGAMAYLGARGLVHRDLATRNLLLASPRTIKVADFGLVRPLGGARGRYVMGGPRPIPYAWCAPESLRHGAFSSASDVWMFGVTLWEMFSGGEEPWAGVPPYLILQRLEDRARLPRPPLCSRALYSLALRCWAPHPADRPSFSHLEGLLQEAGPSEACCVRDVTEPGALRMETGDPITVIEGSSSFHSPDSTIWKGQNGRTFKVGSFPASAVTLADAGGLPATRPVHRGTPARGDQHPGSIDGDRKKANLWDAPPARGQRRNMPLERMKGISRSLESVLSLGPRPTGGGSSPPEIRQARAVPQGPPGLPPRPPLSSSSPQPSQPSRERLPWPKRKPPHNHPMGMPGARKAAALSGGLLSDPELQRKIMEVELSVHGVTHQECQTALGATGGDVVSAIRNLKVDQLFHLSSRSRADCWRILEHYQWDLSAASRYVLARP

[8] = target: BDNF/NT-3 growth factors receptor (Homo sapiens) (UniProt Q16620); assay: Selectivity interaction (KinomeScan (DiscoverX)) EUB0000695a NTRK2; settings: at 100 nM
Chain of BDNF/NT-3 growth factors receptor (Homo sapiens) (Q16620 32-822 limits assumed): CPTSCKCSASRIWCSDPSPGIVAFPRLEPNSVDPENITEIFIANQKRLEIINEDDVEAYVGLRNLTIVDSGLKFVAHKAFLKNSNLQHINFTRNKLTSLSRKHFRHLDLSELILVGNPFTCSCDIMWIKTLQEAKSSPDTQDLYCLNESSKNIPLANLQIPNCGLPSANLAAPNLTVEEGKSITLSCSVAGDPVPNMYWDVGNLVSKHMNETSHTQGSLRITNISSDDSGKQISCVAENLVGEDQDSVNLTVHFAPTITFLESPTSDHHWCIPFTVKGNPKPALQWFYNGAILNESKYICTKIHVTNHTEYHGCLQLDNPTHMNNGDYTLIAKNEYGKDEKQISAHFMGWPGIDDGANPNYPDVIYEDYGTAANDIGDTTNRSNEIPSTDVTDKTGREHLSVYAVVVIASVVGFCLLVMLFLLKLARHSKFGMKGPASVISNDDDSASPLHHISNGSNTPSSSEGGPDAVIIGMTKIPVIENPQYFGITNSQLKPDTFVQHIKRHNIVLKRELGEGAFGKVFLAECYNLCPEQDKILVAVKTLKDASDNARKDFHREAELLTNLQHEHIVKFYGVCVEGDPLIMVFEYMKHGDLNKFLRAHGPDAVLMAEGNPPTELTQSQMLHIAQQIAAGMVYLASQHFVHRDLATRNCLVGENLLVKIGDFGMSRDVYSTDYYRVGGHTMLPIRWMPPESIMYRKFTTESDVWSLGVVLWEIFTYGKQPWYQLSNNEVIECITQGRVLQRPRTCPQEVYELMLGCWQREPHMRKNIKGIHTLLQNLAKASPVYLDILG

[9] = target: D(1A) dopamine receptor (Homo sapiens, UniProt P21728); assay: Selectivity interaction (Eurofins CEREP Diversity Profile (receptors and ion channels)) EUB0000279b DRD1; settings: at 10 µM
Chain of D(1A) dopamine receptor (P21728 whole entry): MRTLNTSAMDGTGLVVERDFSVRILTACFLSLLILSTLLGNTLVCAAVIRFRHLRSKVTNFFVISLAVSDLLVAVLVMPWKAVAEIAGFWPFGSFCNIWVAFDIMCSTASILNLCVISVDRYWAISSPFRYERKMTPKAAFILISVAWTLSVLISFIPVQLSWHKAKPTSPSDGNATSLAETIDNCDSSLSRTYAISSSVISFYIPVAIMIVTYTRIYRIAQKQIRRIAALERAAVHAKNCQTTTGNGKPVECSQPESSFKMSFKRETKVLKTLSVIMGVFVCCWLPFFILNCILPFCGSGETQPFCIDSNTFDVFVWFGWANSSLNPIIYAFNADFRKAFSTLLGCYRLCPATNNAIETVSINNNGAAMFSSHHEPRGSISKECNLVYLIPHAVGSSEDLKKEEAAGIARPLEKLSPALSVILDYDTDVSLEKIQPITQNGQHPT

Chain of Cyclin-dependent kinase 5/CDK5 activator 1 (Homo sapiens) (Q00535 whole entry): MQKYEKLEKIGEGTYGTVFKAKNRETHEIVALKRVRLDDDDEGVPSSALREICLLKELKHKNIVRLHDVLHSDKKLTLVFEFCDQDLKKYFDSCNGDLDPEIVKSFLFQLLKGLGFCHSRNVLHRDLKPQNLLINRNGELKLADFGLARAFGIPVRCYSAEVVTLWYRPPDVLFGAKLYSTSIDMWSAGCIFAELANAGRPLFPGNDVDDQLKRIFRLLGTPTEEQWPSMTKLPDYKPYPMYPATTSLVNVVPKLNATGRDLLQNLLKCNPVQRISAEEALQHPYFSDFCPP
Chain of Cyclin-dependent kinase 5/CDK5 activator 1 (Homo sapiens) (Q15078 99-307 partner limits assumed): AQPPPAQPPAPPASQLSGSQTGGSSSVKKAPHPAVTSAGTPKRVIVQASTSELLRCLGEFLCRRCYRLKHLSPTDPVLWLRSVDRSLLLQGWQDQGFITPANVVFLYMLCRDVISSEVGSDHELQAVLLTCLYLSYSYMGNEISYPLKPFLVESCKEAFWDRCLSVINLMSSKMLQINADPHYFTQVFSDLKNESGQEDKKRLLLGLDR

Q: For Cc1ccc(-c2ccc3c(ccc4sc5c(c43)NC[C@@H](C)NC5=O)n2)cn1, which % of inhibition [1] is on record?
A: 62%

Q: Which results are given for C=CC(=O)Nc1cccc(C(=O)Nc2ccc(Nc3cc(-c4[nH]c(SC)nc4C)ccn3)cc2)c1?
A: % of control ([2]; at 1 µM): 102%; % of control ([2]; at 5 µM): 80%

Q: For CN(C(=O)c1cnn2cccnc12)c1cc2c(cc1N1CCOCC1)C(=O)N(C[C@@H](F)C(C)(C)O)C2, which dTM [3] is on record?
A: -0.4 K

Q: Which % of inhibition [4] does the source give for Nc1cnc(N2CCc3cc(S(=O)(=O)Nc4c(F)cc(Cl)cc4F)cc(N4CCCC4=O)c32)nc1 [TP-020n] here?
A: 20.2%

Q: How did the % of control [5] turn out when O=C(NOC[C@H](O)CO)c1ccc(F)c(F)c1Nc1ccc(I)cc1F was run?
A: 100%

Q: How did the % of inhibition [6] turn out when CC[C@@H]1[C@H](F)C(=O)N[C@@H]1COc1nccc2cc(C(N)=O)c(OC)cc12 [ZIMLOVISERTIB] was run?
A: 76.4%

Q: With COc1cc(Nc2nc(C)cc(-c3cnn4nc(OC)ccc34)n2)cc(C(F)(F)F)c1 as the compound, how does the % of control [7] read?
A: 80%

Q: How did the % of control [8] turn out when Cc1cc(F)c(C(=O)Nc2cccc(-c3nncn3C(C)C)n2)cc1-n1cnc(C2CC2)c1 was run?
A: 65%

Q: CC(=O)c1cc(-c2ccccc2OCC2CC2)c2ncccn12 was tested. Which % of control [9] did it give?
A: 90%
